Assay results published in patent publication EP2970215B1, “PYRROLIDINE DERIVATIVES, PHARMACEUTICAL COMPOSITIONS CONTAINING THEM, AND THEIR USE IN THERAPY” (AbbVie Deutschland GmbH & Co. KG, priority 2013, dated 2014).

What follows are compounds tested against T1, human GlyT1c transporter (Homo sapiens, UniProt P48067) (assay: Radioligand binding assay using recombinant CHO cell membranes expressing human GlyT1). Details: radioligand binding to human GlyT1c transporter-expressing membranes.
T1 construct: expressed in transfected cells; host or cells: CHO cells (recombinant; line hGlyT1c_5_CHO is named for the uptake assay)
T1 sequence (P48067 1-706): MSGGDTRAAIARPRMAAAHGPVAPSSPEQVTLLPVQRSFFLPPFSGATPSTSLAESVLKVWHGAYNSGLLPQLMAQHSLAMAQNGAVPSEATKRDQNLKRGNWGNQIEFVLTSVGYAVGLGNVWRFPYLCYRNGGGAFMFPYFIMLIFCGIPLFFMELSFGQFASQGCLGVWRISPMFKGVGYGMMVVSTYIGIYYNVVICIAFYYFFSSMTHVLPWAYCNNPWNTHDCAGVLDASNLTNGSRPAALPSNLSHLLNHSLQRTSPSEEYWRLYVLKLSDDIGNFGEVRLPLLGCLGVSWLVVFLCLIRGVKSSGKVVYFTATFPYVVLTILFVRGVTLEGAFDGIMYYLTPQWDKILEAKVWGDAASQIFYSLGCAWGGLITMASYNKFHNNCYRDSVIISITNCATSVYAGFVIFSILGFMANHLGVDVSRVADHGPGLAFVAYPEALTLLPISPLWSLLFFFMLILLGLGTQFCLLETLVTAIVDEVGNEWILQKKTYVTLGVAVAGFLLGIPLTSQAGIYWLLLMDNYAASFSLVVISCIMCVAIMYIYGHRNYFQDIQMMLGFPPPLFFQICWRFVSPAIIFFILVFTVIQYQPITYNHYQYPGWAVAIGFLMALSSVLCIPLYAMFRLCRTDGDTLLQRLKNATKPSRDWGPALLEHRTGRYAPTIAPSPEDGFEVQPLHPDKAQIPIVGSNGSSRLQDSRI
Text: 2. Radioligand binding assays using recombinant CHO cell membranes expressing human GlyT1: […]
In the case of Cn1cnc(S(=O)(=O)N2C[C@@H](CNc3cccc(C(F)(F)F)c3)[C@H](c3ccc(F)cc3)C2)c1 (relative stereo) [Example 335, N-({Trans-4-(4-fluorophenyl)-1-[(1-methyl-1H-imidazol-4-yl)sulfonyl]pyrrolidin-3-yl}methyl)-3-(trifluoromethyl)aniline], the Ki is reported as at most 1000 nM. Cn1cnc(S(=O)(=O)N2C[C@@H](COc3cc(C(F)(F)F)ncn3)[C@H](c3ccc(F)cc3)C2)c1 (relative stereo) [Example 336, 4-({Trans-4-(4-fluorophenyl)-1-[(1-methyl-1H-imidazol-4-yl)sulfonyl]pyrrolidin-3-yl}methoxy)-6-(trifluoromethyl)pyrimidine] gave a Ki of at most 1000 nM. With Cn1cnc(S(=O)(=O)N2C[C@@H](Nc3cccc(C(F)(F)F)c3)[C@H](C3CC3)C2)c1 (relative stereo) [Example 337, Trans-4-cyclopropyl-1-[(1-methyl-1H-imidazol-4-yl)sulfonyl]-N-[3-(trifluoromethyl)phenyl]pyrrolidin-3-amine] the Ki was at most 1000 nM. Compound Cn1cnc(S(=O)(=O)N2C[C@@H](Nc3cccc(Cl)c3)[C@H](C3CC3)C2)c1 (relative stereo) [Example 338, Trans-N-(3-chlorophenyl)-4-cyclopropyl-1-[(1-methyl-1H-imidazol-4-yl)sulfonyl]pyrrolidin-3-amine] has a Ki of at most 1000 nM. Work on Cn1cnc(S(=O)(=O)N2C[C@@H](Nc3ccc(C#N)c(F)c3)[C@H](c3ccc(F)cc3)C2)c1 (relative stereo) [Example 342, 2-fluoro-4-({trans-4-(4-fluorophenyl)-1-[(1-methyl-1H-imidazol-4-yl)sulfonyl]pyrrolidin-3-yl}amino)benzonitrile] yielded a Ki of at most 10000 nM. With Cn1cnc(S(=O)(=O)N2C[C@@H](Nc3cccc(C(F)(F)F)c3)[C@H](c3ccccn3)C2)c1 (relative stereo) [Example 344, trans-1-[(1-methyl-1H-imidazol-4-yl)sulfonyl]-4-(pyridin-2-yl)-N-[3-(trifluoromethyl)phenyl]pyrrolidin-3-amine] the Ki was at most 100 nM. With Cn1cnc(S(=O)(=O)N2C[C@@H](Nc3cccc(Cl)c3)[C@H](c3ccccn3)C2)c1 (relative stereo) [Example 345, Trans-N-(3-chlorophenyl)-1-[(1-methyl-1H-imidazol-4-yl)sulfonyl]-4-(pyridin-2-yl)pyrrolidin-3-amine] the Ki was at most 100 nM. Work on Cn1cnc(S(=O)(=O)N2C[C@@H](COc3cc(C(F)(F)F)ccn3)[C@H](c3ccc(F)cc3)C2)c1 (relative stereo) [Example 346, 2-({Trans-4-(4-fluorophenyl)-1-[(1-methyl-1H-imidazol-4-yl)sulfonyl]pyrrolidin-3-yl}methoxy)-4-(trifluoromethyl)pyridine] yielded a Ki of at most 1000 nM. In the case of Cn1cnc(S(=O)(=O)N2C[C@@H](C(=O)Nc3cccc(C#N)c3)[C@H](c3ccc(F)cc3)C2)c1 (relative stereo) [Example 347, Trans-N-(3-cyanophenyl)-4-(4-fluorophenyl)-1-[(1-methyl-1H-imidazol-4-yl)sulfonyl]pyrrolidine-3-carboxamide], the Ki is reported as at most 10000 nM. With Cn1cnc(S(=O)(=O)N2C[C@@H](COc3ccc(F)cc3)[C@H](c3ccc(F)cc3)C2)c1 (relative stereo) [Example 348, 4-{[Trans-3-[(4-fluorophenoxy)methyl]-4-(4-fluorophenyl)pyrrolidin-1-yl]sulfonyl}-1-methyl-1H-imidazole] the Ki was at most 100 nM. Cn1cnc(S(=O)(=O)N2C[C@@H](C(=O)c3ccc(F)c(F)c3)[C@H](c3ccc(F)cc3)C2)c1 (relative stereo) [Example 357, (3,4-Difluorophenyl){trans-4-(4-fluorophenyl)-1-[(1-methyl-1H-imidazol-4-yl)sulfonyl]pyrrolidin-3-yl}methanone] was tested, and the Ki was at most 1000 nM. Work on Cn1cnc(S(=O)(=O)N2C[C@@H](C(=O)Nc3ccc(F)cc3)[C@H](c3ccc(F)cc3)C2)c1 (relative stereo) [Example 358, Trans-N,4-bis(4-fluorophenyl)-1-[(1-methyl-1H-imidazol-4-yl)sulfonyl]pyrrolidine-3-carboxamide] yielded a Ki of at most 100 nM. With Cn1cnc(S(=O)(=O)N2C[C@@H](C(=O)c3ccc(Cl)c(Cl)c3)[C@H](c3ccc(F)cc3)C2)c1 (relative stereo) [Example 359, (3,4-Dichlorophenyl){trans-4-(4-fluorophenyl)-1-[(1-methyl-1H-imidazol-4-yl)sulfonyl]pyrrolidin-3-yl} methanone] the Ki was at most 1000 nM. In the case of Cn1cnc(S(=O)(=O)N2C[C@@H](C(=O)c3cc(F)cc(Cl)c3)[C@H](c3ccc(F)cc3)C2)c1 (relative stereo) [Example 361, (3-Chloro-5-fluorophenyl){trans-4-(4-fluorophenyl)-1-[(1-methyl-1H-imidazol-4-yl)sulfonyl]pyrrolidin-3-yl} methanone], the Ki is reported as at most 1000 nM. For Cn1cnc(S(=O)(=O)N2C[C@@H](C(=O)c3ccc(OC(F)(F)F)cc3)[C@H](c3ccc(F)cc3)C2)c1 (relative stereo) [Example 363, {Trans-4-(4-fluorophenyl)-1-[(1-methyl-1H-imidazol-4-yl)sulfonyl]pyrrolidin-3-yl}[4-(trifluoromethoxy)phenyl]methanone], the Ki was at most 100 nM. For Cn1cnc(S(=O)(=O)N2C[C@@H](CNc3cccc(C(N)=O)c3)[C@H](c3ccc(F)cc3)C2)c1 (relative stereo) [Example 364, 3-[({Trans-4-(4-fluorophenyl)-1-[(1-methyl-1H-imidazol-4-yl)sulfonyl]pyrrolidin-3-yl}methyl)amino]benzamide], the Ki was at most 10000 nM. Work on Cn1cnc(S(=O)(=O)N2C[C@@H](CNc3cccc(CN)c3)[C@H](c3ccc(F)cc3)C2)c1 (relative stereo) [Example 365, 3-(Aminomethyl)-N-({Trans-4-(4-fluorophenyl)-1-[(1-methyl-1H-imidazol-4-yl)sulfonyl]pyrrolidin-3-yl}methyl)aniline] yielded a Ki of at most 10000 nM. Cn1cnc(S(=O)(=O)N2C[C@@H](COc3ccnc(C(F)(F)F)c3)[C@H](c3ccc(F)cc3)C2)c1 (relative stereo) [Example 366, 4-({Trans-4-(4-fluorophenyl)-1-[(1-methyl-1H-imidazol-4-yl)sulfonyl]pyrrolidin-3-yl}methoxy)-2-(trifluoromethyl)pyridine] was tested, and the Ki was at most 100 nM. Cn1cnc(S(=O)(=O)N2C[C@@H](CNc3ccc(F)cc3)[C@H](c3ccc(F)cc3)C2)c1 (relative stereo) [Example 367, 4-Fluoro-N-({trans-4-(4-fluorophenyl)-1-[(1-methyl-1H-imidazol-4-yl)sulfonyl]pyrrolidin-3-yl}methyl)aniline] gave a Ki of at most 100 nM. For Cn1cnc(S(=O)(=O)N2C[C@@H](C(=O)Nc3cc(C(F)(F)F)ccn3)[C@H](c3ccc(F)cc3)C2)c1 (relative stereo) [Example 369, Trans-4-(4-fluorophenyl)-1-[(1-methyl-1H-imidazol-4-yl)sulfonyl]-N-[4-(trifluoromethyl)pyridin-2-yl]pyrrolidine-3-carboxamide], the Ki was at most 1000 nM. In the case of Cn1cnc(S(=O)(=O)N2C[C@@H](C(=O)Nc3ccc(F)c(OC(F)(F)F)c3)[C@H](c3ccc(F)cc3)C2)c1 (relative stereo) [Example 370, Trans-4-(4-fluorophenyl)-N-[4-fluoro-3-(trifluoromethoxy)phenyl]-1-[(1-methyl-1H-imidazol-4-yl)sulfonyl]pyrrolidine-3-carboxamide], the Ki is reported as at most 1000 nM. Compound Cn1cnc(S(=O)(=O)N2C[C@@H](C(=O)Nc3ccc(Cl)c(OC(F)(F)F)c3)[C@H](c3ccc(F)cc3)C2)c1 (relative stereo) [Example 371, Trans-N-[4-chloro-3-(trifluoromethoxy)phenyl]-4-(4-fluorophenyl)-1-[(1-methyl-1H-imidazol-4-yl)sulfonyl]pyrrolidine-3-carboxamide] has a Ki of at most 1000 nM. CC(=O)Nc1ccc(Cl)cc1N[C@@H]1CN(S(=O)(=O)c2cn(C)cn2)C[C@H]1c1ccc(F)cc1 (relative stereo) [Example 372, N-[4-chloro-2-({Trans-4-(4-fluorophenyl)-1-[(1-methyl-1H-imidazol-4-yl)sulfonyl]pyrrolidin-3-yl}amino)phenyl]acetamide] gave a Ki of at most 10000 nM. Compound Cn1cnc(S(=O)(=O)N2C[C@@H](O)[C@H](Nc3cccc(Cl)c3)C2)c1 (relative stereo) [Example 373, Trans-4-[(3-chlorophenyl)amino]-1-[(1-methyl-1H-imidazol-4-yl)sulfonyl]pyrrolidin-3-ol] has a Ki of at most 10000 nM. Cn1cnc(S(=O)(=O)N2C[C@@H](NC(=O)C3(C(F)(F)F)CC3)[C@H](c3ccccn3)C2)c1 (relative stereo) [Example 374, N-[Trans-1-[(1-methyl-1H-imidazol-4-yl)sulfonyl]-4-(pyridin-2-yl)pyrrolidin-3-yl]-1-(trifluoromethyl)cyclopropanecarboxamide] was tested, and the Ki was at least 10000 nM. With Cn1cnc(S(=O)(=O)N2C[C@@H](CNc3ccc(F)c(OC(F)(F)F)c3)[C@H](c3ccc(F)cc3)C2)c1 (relative stereo) [Example 376, 4-fluoro-N-({trans-4-(4-fluorophenyl)-1-[(1-methyl-1H-imidazol-4-yl)sulfonyl]pyrrolidin-3-yl}methyl)-3-(trifluoromethoxy)aniline] the Ki was at most 1000 nM.
